Values of other authors in patent US7015199B1, “Treatment of psoriasis through down-regulation of the EGF-receptor with topically-applied EGF” (priority 2000, dated 2006).

Test system: EGF-dependent cancer cell lines
Settings: high levels of EGF, in-vitro

Q: With “epidermal growth factor (NSDSECPLSHDGYCLHDGVCMYIEALDKYACNCVVGYIGERCQYRDLKWWELR; Epidermal growth factor; UniProt P01133 971-1023, looked up) [EGF, epidermal growth factor, ligand of the EGF receptor]” as the substance, how does the “growth of EGF-dependent cancer cell lines” value read?
A: The value was “inhibited the growth”.
